Results published in article PMC6274376, “Naturally Inspired Molecules as Multifunctional Agents for Alzheimer’s Disease Treatment” (Molecules, 2016).

Biological target: hBACE-1 (Homo sapiens, UniProt P56817)
Assay: BACE-1 FRET inhibition assay
Format: biochemical
Conditions: FRET assay; average of multiple experiments each in triplicate, ± SEM
Description: The new benzophenone-based hybrids 3–7 presented in this study were first evaluated for their in vitro ability to inhibit the enzymatic activity of BACE-1, by means of a biochemical assay performed using the fluorescence resonance energy transfer (FRET) methodology and in comparison to inhibitor IV [22] as reference compound (Table 1). For the most interesting compounds 3–5, endowed with the orto-hydroxycarbonyl substitution pattern, the neuroprotective potential was determined as lack of toxic effects on neuronal cell viability and as Cu(II) chelating activity (Table 2); moreover, their direct interactions with Cu(II) ion were confirmed by a UV-vis spectrophotometric study.
Inhibition studies were performed using the following procedure: 5 μL of test compound (or DMSO) were pre-incubated with 175 μL of enzyme (10.37 nM, final concentration) in 20 mM NaOAc pH 4.5 containing CHAPS (0.1% w/v) for 1 h at r.t.; M-2420 (3 μM, final concentration) was then added and left to react for 15 min. The fluorescence signal was read at λem = 405 nm (λexc = 320 nm). DMSO concentration in the final mixture was maintained below 5% (v/v) to guarantee no significant loss of enzyme activity.Fluorescence intensities with and without inhibitor were compared and the percent inhibition due to the presence of test compounds was calculated. The background signal was measured in control wells containing all the reagents, except theenzymeand subtracted. The % inhibition due to the presence of increasing test compound concentration was calculated by the following expression: 100 − (IFi/IFo × 100) where IFi and IFo are the fluorescence intensities obtained for the enzyme in the presence and in the absence of inhibitor, respectively. Inhibition curves were obtained for each compound by plotting the % inhibition versus the logarithm of inhibitor concentration in the assay sample. The linear regression parameters were determined and the IC50 extrapolated (GraphPad Prism 4.0, GraphPad Software Inc., San Diego, CA, USA).

hBACE-1, sequence (P56817 46-501): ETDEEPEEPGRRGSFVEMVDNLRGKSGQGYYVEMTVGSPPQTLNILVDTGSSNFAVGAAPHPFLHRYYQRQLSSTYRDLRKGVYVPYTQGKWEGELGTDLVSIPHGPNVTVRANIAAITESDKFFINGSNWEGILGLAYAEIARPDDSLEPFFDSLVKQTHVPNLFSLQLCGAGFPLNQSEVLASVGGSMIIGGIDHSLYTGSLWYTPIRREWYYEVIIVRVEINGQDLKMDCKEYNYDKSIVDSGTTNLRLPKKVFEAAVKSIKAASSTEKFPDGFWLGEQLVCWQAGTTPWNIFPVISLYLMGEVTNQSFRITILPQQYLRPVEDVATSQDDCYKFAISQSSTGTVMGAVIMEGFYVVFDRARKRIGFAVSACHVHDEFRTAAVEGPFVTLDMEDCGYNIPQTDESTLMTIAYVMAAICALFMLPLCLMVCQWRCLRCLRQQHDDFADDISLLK

CN(Cc1ccccc1)Cc1ccc(C(=O)c2ccc(OCCOc3ccc(C(=O)/C=C/c4cccc5ccccc45)c(O)c3)cc2)cc1 [Compound 5, E-1-{4-[2-(4-4-Benzylmethylaminomethylbenzoylphenoxy)ethoxy]-2-hydroxyphenyl}-3-(naphthalen-1-yl)-prop-2-en-1-one]
IC50: 4.02 ± 0.29 µM
